Assay [1] has as its target T1, human norepinephrine transporter (Homo sapiens, UniProt P23975).
T1 construct: host or cells: HEK-293
Nature of the assay: hNET receptor binding ([125I]-RTI-55 radioligand binding). To be noted: membranes of HEK-293 cells transfected with human norepinephrine transporter, IC50 converted to Ki by Cheng-Prusoff, read-out: hNET (Ki). Put shortly: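 Membranes from HEK-293 cells transfected with human NET. Nonspecific binding defined with 10 μM desipramine, duplicates. IC50 by nonlinear regression, converted to Ki with Cheng-Prusoff.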

For assay [2], the target named is T2, human seritonin transporter (Homo sapiens, UniProt P31645).
T2 construct: host or cells: HEK-293
The experiment in a line: hSERT receptor binding ([125I]-RTI-55 radioligand binding). To be noted: membranes of HEK-293 cells transfected with human seritonin transporter, IC50 converted to Ki by Cheng-Prusoff, read-out: SERT (Ki).

Consider 38 molecules from patent publication US7659394B2 (Pfizer Inc, priority 2004, dated 2010).

T1 sequence (P23975 whole entry): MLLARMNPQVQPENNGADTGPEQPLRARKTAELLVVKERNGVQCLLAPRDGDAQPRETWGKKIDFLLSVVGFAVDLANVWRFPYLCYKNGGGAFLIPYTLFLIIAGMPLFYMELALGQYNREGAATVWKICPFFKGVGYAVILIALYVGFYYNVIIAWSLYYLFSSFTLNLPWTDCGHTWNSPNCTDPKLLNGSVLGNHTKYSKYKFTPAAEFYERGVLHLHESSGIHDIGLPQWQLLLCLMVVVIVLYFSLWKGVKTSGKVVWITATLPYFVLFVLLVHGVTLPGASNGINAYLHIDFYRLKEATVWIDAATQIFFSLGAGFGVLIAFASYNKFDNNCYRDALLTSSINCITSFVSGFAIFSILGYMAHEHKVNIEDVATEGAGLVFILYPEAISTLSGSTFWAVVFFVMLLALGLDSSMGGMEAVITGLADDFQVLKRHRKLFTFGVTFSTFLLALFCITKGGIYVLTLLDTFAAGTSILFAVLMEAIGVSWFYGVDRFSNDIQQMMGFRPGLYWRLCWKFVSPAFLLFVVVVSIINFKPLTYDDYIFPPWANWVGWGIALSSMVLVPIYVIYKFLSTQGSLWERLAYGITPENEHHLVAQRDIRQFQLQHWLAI
T2 sequence (P31645 whole entry): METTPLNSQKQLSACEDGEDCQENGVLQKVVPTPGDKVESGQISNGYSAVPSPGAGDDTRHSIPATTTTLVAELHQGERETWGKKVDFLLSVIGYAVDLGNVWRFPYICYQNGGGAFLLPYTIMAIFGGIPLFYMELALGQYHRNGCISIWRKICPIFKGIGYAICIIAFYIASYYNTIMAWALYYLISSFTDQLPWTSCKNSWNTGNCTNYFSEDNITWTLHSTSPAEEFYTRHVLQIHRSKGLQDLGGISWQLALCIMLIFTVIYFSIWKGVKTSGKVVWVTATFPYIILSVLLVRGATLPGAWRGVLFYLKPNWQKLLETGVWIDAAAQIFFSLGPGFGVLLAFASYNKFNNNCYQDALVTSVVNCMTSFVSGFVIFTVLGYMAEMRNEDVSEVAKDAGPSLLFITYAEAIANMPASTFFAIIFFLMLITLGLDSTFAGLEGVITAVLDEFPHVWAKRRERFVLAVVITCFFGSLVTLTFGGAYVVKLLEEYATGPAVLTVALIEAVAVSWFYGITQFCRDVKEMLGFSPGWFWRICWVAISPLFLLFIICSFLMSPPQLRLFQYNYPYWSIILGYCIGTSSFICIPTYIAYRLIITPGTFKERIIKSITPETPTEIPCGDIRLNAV

For `CCc1ccnc([C@H](Oc2c(F)cccc2OC)[C@@H]2CNCCO2)c1` [Example 141, (2S)-2-[(S)-(4-ethylpyridin-2-yl) (2-fluoro-6-methoxyphenoxy)methyl]morpholine], the Ki is 0.04 µM in assay [1] and 2.74 µM in assay [2].
With `CCOc1ccccc1O[C@@H](c1cc(CC)ccn1)[C@@H]1CNCCO1` [Example 142, (2S)-2-[(S)-(2-ethoxyphenoxy)(4-ethylpyridin-2-yl)methyl]morpholine], the values for the Ki in assay [1] and in assay [2] were 0.049 µM and 4.54 µM, respectively.
In the case of `CCOc1ncccc1O[C@@H](C)[C@@H]1CNCCO1` [Example 144, (2S)-2-{(1S)-1-[(2-ethoxypyridin-3-yl)oxy]ethyl}morpholine], the inhibitory constant (Ki) was found to be 0.304 µM in assay [1] and 7.22 µM in assay [2].
Regarding `FCCCc1ccccc1O[C@@H](c1ccccc1)[C@@H]1CNCCO1` [Example 145, (2S)-2-[(S)-[2-(3-fluoropropyl)phenoxy](phenyl)methyl]morpholine], the values for the inhibition constant Ki in assay [1] and in assay [2] were 0.045 µM and 4.14 µM, respectively.
In the case of `Fc1cccc(F)c1O[C@H](C1=CCCC1)[C@@H]1CNCCO1` [Example 147, (2S)-2-[(R)-cyclopent-1-en-1-yl(2,6-difluorophenoxy)methyl]morpholine], the inhibition constant (Ki) in assay [1] was found to be 2.57 µM; in assay [2], 2.53 µM.
Turning to `COc1cccc(OC)c1OC(c1ccccc1)[C@@H]1CNCCO1` (stereo partly drawn) [Example 148, (2S)-2-[(2,6-dimethoxyphenoxy)(phenyl)methyl]morpholine], the inhibitory constant (Ki) in assay [1] was 0.069 µM; in assay [2], no less than 10 µM.
Regarding `CCOc1ncccc1OC(CC(C)C)[C@@H]1CNCCO1` (stereo partly drawn) [Example 149, (2S)-2-{1-[(2-ethoxypyridin-3-yl)oxy]-3-methylbutyl}morpholine], the Ki in assay [1] was found to be 0.009 µM; in assay [2] it was 2.31 µM.
Taken in the same sequence, the figures for `c1ccc([C@H](Oc2cccnc2C2CC2)[C@@H]2CNCCO2)cc1` [Example 150, (2S)-2-[(S)-[(2-cyclopropylpyridin-3-yl)oxy](phenyl)methyl]morpholine] were 0.02 µM and 2.03 µM.
As to `CC(Oc1ccccc1Oc1ccc(F)cc1)[C@@H]1CNCCO1` (stereo partly drawn) [Example 151, (2S)-2-{1-[2-(4-fluorophenoxy)phenoxy]ethyl}morpholine], the Ki stood at 0.004 µM in assay [1] and 3.29 µM in assay [2].
Taken in the same sequence, the figures for `Fc1ccc(Cl)c(O[C@@H](c2ccccn2)[C@@H]2CNCCO2)c1` [Example 152, (2S)-2-[(S)-(2-chloro-5-fluorophenoxy)(pyridin-2-yl)methyl]morpholine] were 0.009 µM and 1.94 µM.
Taken in the same sequence, the figures for `c1ccc(-c2ccccc2O[C@@H](c2ccccn2)[C@@H]2CNCCO2)cc1` [Example 153, (2S)-2-[(S)-(biphenyl-2-yloxy)(pyridin-2-yl)methyl]morpholine] were 0.014 µM and 6.32 µM.
On to `c1ccc([C@H](Oc2ccccc2C2CC2)[C@@H]2CNCCO2)nc1` [Example 154, (2S)-2-[(S)-(2-cyclopropylphenoxy)(pyridin-2-yl)methyl]morpholine], for which the Ki worked out at 0.012 µM in assay [1] and 2.52 µM in assay [2].
Turning to `Brc1ccccc1O[C@@H](c1ccccn1)[C@@H]1CNCCO1` [Example 155, (2S)-2-[(S)-(2-bromophenoxy)(pyridin-2-yl)methyl]morpholine], the figures for the Ki in assay [1] and in assay [2] were 0.005 µM and 0.768 µM, respectively.
In the same order, the values of `FCc1ccccc1OC(c1ccccc1)[C@@H]1CNCCO1` (stereo partly drawn) [Example 156, (2S)-2-[[2-(fluoromethyl)phenoxy](phenyl)methyl]morpholine] are 0.014 µM and 0.801 µM.
In the case of `CCOc1cccc(F)c1OC(c1ccccc1)[C@@H]1CNCCO1` (stereo partly drawn) [Example 157, (2S)-2-[(2-ethoxy-6-fluorophenoxy)(phenyl)methyl]morpholine], the values for the Ki in assay [1] and in assay [2] were 0.004 µM and 2.57 µM, respectively.
On to `COc1cccc(F)c1O[C@@H](c1ccccn1)[C@@H]1CNCCO1` [Example 158, (2S)-2-[(S)-(2-fluoro-6-methoxyphenoxy)(pyridin-2-yl)methyl]morpholine], for which the Ki is 0.006 µM in assay [1] and no less than 10 µM in assay [2].
Consider `CCOc1cccc(F)c1O[C@@H](c1ccccn1)[C@@H]1CNCCO1` [Example 159, (2S)-2-[(S)-(2-ethoxy-6-fluorophenoxy)(pyridin-2-yl)methyl]morpholine], for which the Ki in assay [1] worked out at 0.007 µM; in assay [2] it was 7.37 µM.
In the same order, the values of `Fc1cccc(F)c1O[C@@H](c1ccccn1)[C@@H]1CNCCO1` [Example 160, (2S)-2-[(S)-(2,6-difluorophenoxy)(pyridin-2-yl)methyl]morpholine] are 0.006 µM and 6.5 µM.
`FCCCOc1ccccc1O[C@@H](c1ccccc1)[C@@H]1CNCCO1` [Example 161, (2S)-2-[(S)-[2-(3-fluoropropoxy)phenoxy](phenyl)methyl]morpholine]: the Ki in assay [1] was 0.005 µM; in assay [2], 3.88 µM.
Consider `CCOc1ncccc1O[C@@H](CC1CCCCC1)[C@@H]1CNCCO1` [Example 162, (2S)-2-{(1S)-2-cyclohexyl-1-[(2-ethoxypyridin-3-yl)oxy]ethyl}morpholine], for which the Ki in assay [1] came out at 0.005 µM; in assay [2], 0.263 µM.
For the molecule `Fc1cccc(F)c1OC(c1cccc2c1OCC2)[C@@H]1CNCCO1` (stereo partly drawn) [Example 163, (2S)-2-[(2,6-difluorophenoxy)(2,3-dihydro-1-benzofuran-7-yl)methyl]morpholine], the Ki in assay [1] was found to be 0.013 µM; in assay [2] it was 0.446 µM.
Consider `Fc1ccc(C2CC2)c(O[C@@H](c2ccccn2)[C@@H]2CNCCO2)c1` [Example 164, (2S)-2-[(S)-(2-cyclopropyl-5-fluorophenoxy)(pyridin-2-yl)methyl]morpholine], for which the Ki in assay [1] amounted to 0.013 µM; in assay [2] it was 3.07 µM.
In the same order, the values of `CC(C)Oc1cccc(F)c1O[C@@H](c1ccccc1)[C@@H]1CNCCO1` [Example 165, (2S)-2-[(S)-(2-fluoro-6-isopropoxyphenoxy)(phenyl)methyl]morpholine] are 0.004 µM and 0.351 µM.
Regarding `COc1ncccc1O[C@@H](c1ccccc1)[C@@H]1CNCCO1` [Example 166, (2S)-2-[(S)-[(2-methoxypyridin-3-yl)oxy](phenyl)methyl]morpholine], the Ki in assay [1] turned out to be 0.008 µM; in assay [2] it was 1.35 µM.
As for `COc1ccc(F)cc1OC(c1ccccc1)[C@@H]1CNCCO1` (stereo partly drawn) [Example 167, (2S)-2-[(5-fluoro-2-methoxyphenoxy)(phenyl)methyl]morpholine], the Ki was 0.008 µM in assay [1] and 2.55 µM in assay [2].
`COc1c(F)cccc1OC(c1ccccc1)[C@@H]1CNCCO1` (stereo partly drawn) [Example 168, (2S)-2-[(3-fluoro-2-methoxyphenoxy)(phenyl)methyl]morpholine]: the values for the Ki in assay [1] and in assay [2] were 0.005 µM and 0.791 µM, respectively.
For `CCOc1ccc(F)cc1OC(c1ccccc1)[C@@H]1CNCCO1` (stereo partly drawn) [Example 169, (2S)-2-[(2-ethoxy-5-fluorophenoxy)(phenyl)methyl]morpholine], the inhibition constant (Ki) in assay [1] turned out to be 0.006 µM; in assay [2] it was 2.98 µM.
`CCOc1c(F)cccc1OC(c1ccccc1)[C@@H]1CNCCO1` (stereo partly drawn) [Example 170, (2S)-2-[(2-ethoxy-3-fluorophenoxy)(phenyl)methyl]morpholine]: the inhibition constant Ki turned out to be 0.011 µM in assay [1] and 4.93 µM in assay [2].
In the case of `CCCOc1cccc(F)c1O[C@@H](c1ccccc1)[C@@H]1CNCCO1` [Example 171, (2S)-2-[(S)-(2-fluoro-6-propoxyphenoxy)(phenyl)methyl]morpholine], the Ki was found to be 0.02 µM in assay [1] and 1.04 µM in assay [2].
Taken in the same sequence, the figures for `Cc1coc(C(Oc2c(F)cccc2F)[C@@H]2CNCCO2)n1` (stereo partly drawn) [Example 173, (2S)-2-[(2,6-difluorophenoxy)(4-methyl-1,3-oxazol-2-yl)methyl]morpholine] were 0.012 µM and no less than 10 µM.
Taken in the same sequence, the figures for `Cc1coc(C(Oc2ccccc2OC(F)(F)F)[C@@H]2CNCCO2)n1` (stereo partly drawn) [Example 174, (2S)-2-{(4-methyl-1,3-oxazol-2-yl)[2-(trifluoromethoxy)phenoxy]methyl}morpholine] were 0.018 µM and 7.52 µM.
Taken in the same sequence, the figures for `Fc1cccc(F)c1OC(c1nccs1)[C@@H]1CNCCO1` (stereo partly drawn) [Example 175, (2S)-2-[(2,6-difluorophenoxy)(1,3-thiazol-2-yl)methyl]morpholine] were 0.015 µM and 7.64 µM.
Take `CCCC[C@H](Oc1cccnc1OCC)[C@@H]1CNCCO1` [Example 176, (2S)-2-{(1S)-1-[(2-ethoxypyridin-3-yl)oxy]pentyl}morpholine]: the Ki in assay [1] is 0.005 µM; in assay [2], 3.42 µM.
For the molecule `Cc1coc(C(Oc2ccccc2Br)[C@@H]2CNCCO2)n1` (stereo partly drawn) [Example 177, (2S)-2-[(2-bromophenoxy)(4-methyl-1,3-oxazol-2-yl)methyl]morpholine], the inhibition constant (Ki) in assay [1] turned out to be 0.007 µM; in assay [2], 1.96 µM.
Take `Cc1cccc(F)c1O[C@@H](c1ccccc1)[C@@H]1CNCCO1` [Example 178, (2S)-2-[(S)-(2-fluoro-6-methylphenoxy)(phenyl)methyl]morpholine]: the Ki amounted to 0.003 µM in assay [1] and 0.061 µM in assay [2].
Regarding `CC(C)c1ncccc1O[C@@H](c1ccccc1)[C@@H]1CNCCO1` [Example 179, (2S)-2-[(S)-[(2-isopropylpyridin-3-yl)oxy](phenyl)methyl]morpholine], the Ki in assay [1] was found to be 0.018 µM; in assay [2], 2.55 µM.
In the case of `CCOc1ccccc1OC(c1nccs1)[C@@H]1CNCCO1` (stereo partly drawn) [Example 180, (2S)-2-[(2-ethoxyphenoxy)(1,3-thiazol-2-yl)methyl]morpholine], the Ki in assay [1] turned out to be 0.009 µM; in assay [2], 8.23 µM.
On to `CCOc1ccccc1O[C@H](c1ccccn1)[C@H]1CNCCO1` [Example 181, (2R)-2-[(R)-(2-ethoxyphenoxy)(pyridin-2-yl)methyl]morpholine], for which the figures for the Ki in assay [1] and in assay [2] were 0.225 µM and 4.9 µM, respectively.
